Assay results reported in patent publication US7332292B2, “Constitutively translocating cell line” (priority 2002, dated 2008).

System: angiotensin II type 1A receptor (AT1AR)
Assay: GRK2-C20 induced ligand-independent arrestinGFP translocation to the AT1AR in U2OS cells (INCell Analyzer)
Format: cell-based
Method: U2OS cells stably expressing arrestinGFP and the angiotensin II type 1A receptor (AT1 AR) were transiently transduced with human GRK2-C20 using a baculovirus expression system. A range of GRK2-C20 expression levels was obtained by using varying amounts (serial dilution) of the GRK2-C20 baculovirus.
To test whether the ligand-independent arrestinGFP translocation could be blocked by an antagonist/inverse agonist of the AT1AR, the cells were treated with losartan. Losartan is a nonpeptide molecule that functions as an antagonist/inverse agonist of the AT1AR. Losartan (1 μM final concentration) was added to the cells either immediately after transduction for an 18 hour incubation or 15 hours after transduction for a 3 hour incubation. At the end of the incubation, the cells were analyzed for arrestinGFP translocation using the INCell Analyzer system.

CCCCc1nc(Cl)c(CO)n1Cc1ccc(-c2ccccc2-c2nnn[nH]2)cc1 [losartan, Losartan]
effect on ligand-independent translocation of arrestinGFP to the AT1AR induced by expression of GRK2-C20 (losartan 1 μM final concentration, 3 hour or 18 hour incubation, U2OS cells stably expressing arrestinGFP and AT1AR): blocks the ligand-independent translocation of arrestinGFP to the AT1AR
inhibition of the ligand-independent translocation of arrestinGFP to the AT1AR (losartan 1 μM, 18 hour incubation, lower levels of GRK2-C20 expression (1:64, 1:128, and 1:256 dilutions of baculovirus)): greater than 90%
